{"source": "patent US20050163778A1", "about": "“Extracorporeal photopheresis in combination with anti-TNF treatment” (priority 2003, published 2005)", "tested_on": "TNFα production by monocyte-derived dendritic cells", "assay": "Examples 2-4: TNFα production by LPS-stimulated monocyte-derived dendritic cells (ELISA of culture supernatants)", "type": "cell-based, human", "conditions": "48 hours", "protocol": "In examples 1-5, Monocyte-derived dendritic cells were obtained as follows: PBMC were isolated from the peripheral blood of healthy donors by fractionation over Ficoll-Hypaque gradient centrifugation. Monocytes were positively selected using the MACS CD14 isolation kit and the Automacs system (Miltenyi Biotec, Germany). CD14^+ monocytes were cultured in complete RPMI supplemented with 40 ng/ml IL-4 and GM-CSF (R&D Systems) for 5 days. Cytokine secretion was induced by stimulation of the dendritic cells with lypopolysacharides (“LPS”, Sigma). Standard ELISA procedures were used to measure TNFα and IL-12 (R&D Systems) levels in culture supernatants.\nCulture supernatants were harvested from these cultures at 48 hours for measurement of TNFα production. […] While each of these treatments represent a reduction from the baseline value of over 1000 pg/ml, the levels dropped to an average of less than 50 pg/ml when the method of the invention was used.\nCulture supernatants were harvested from these cultures at 48 hours for quantitation of TNFα production. […] While each of these treatments represent a reduction from the baseline value of over 2300 pg/ml, the levels dropped to about 100 pg/ml when the method of the invention was used.\nCulture supernatants were harvested from these cultures at 48 hours for measurement of TNFα production. Another group of dendritic cells were similarly treated and the culture supernatants were harvested from these cultures at 48 hours for quantitation of TNFα production."}
{"substance": "infliximab [Remicade mAb]", "values": [{"measurement": "TNFα in culture supernatant", "setting": "Example 2, increasing quantities of LPS, Remicade mAb 200 ng/ml, ECP-treated CD15+ cells 5×10^5 cells/well, baseline over 1000 pg/ml", "value": "about 100 pg/ml"}, {"measurement": "TNFα in culture supernatant", "setting": "Example 3, 0.1 mg/ml LPS, Remicade mAb 200 ng/ml, ECP-treated CD15+ cells 5×10^5 cells/well, baseline over 2300 pg/ml", "value": "about 500 pg/ml"}, {"measurement": "TNFα in culture supernatant", "setting": "Example 4, 8 ng/ml Remicade mAb, alone or with ECP", "value": "greater than 1300 pg/ml"}, {"measurement": "TNFα in culture supernatant", "setting": "Example 4, about 2 ng/ml Remicade mAb, alone or with ECP", "value": "~1000", "unit": "pg/mL"}]}
